Measurements taken from patent US9981913B2, “Liver X receptor (LXR) modulators” (Ralexar Therapeutics, Inc., priority 2013, dated 2018).

Target: T1, human LXRβ (AA 153-461) LBD (Homo sapiens, UniProt P55055)
T1 construct: human LXRβ (AA 153-461) LBD plasmid; expressed in transfected cells; host or cells: HEK 293 cells, transient transfection with Fugene 6
T1 sequence (P55055 153-460 limits assumed): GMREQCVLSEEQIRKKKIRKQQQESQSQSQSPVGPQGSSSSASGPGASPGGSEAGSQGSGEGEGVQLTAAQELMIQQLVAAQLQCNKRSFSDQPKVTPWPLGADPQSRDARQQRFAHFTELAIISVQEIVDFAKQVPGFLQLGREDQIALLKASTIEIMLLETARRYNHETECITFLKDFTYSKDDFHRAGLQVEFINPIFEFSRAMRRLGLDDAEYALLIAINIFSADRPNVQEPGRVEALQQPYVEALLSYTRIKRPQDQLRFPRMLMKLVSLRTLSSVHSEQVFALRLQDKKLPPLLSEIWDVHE
Assay: Gal4 LXRβ cotransfection assay (LXRβ Gal fusion assay)
Assay type: cell-based
Details: transiently transfected HEK 293 cells, Gal4-responsive luciferase reporter, compounds 0.01-10 μM, triplicate
Procedure: For transient transfection of HEK 293 cells, 6×10^3 cells are plated into 96-well dishes. Each well is transfected with 25 ng 5×UAS-luciferase reporter (pG5luc) and 25 ng of […] human LXRβ (AA 153-461) LBD plasmid using Fugene 6 reagent (Roche; Indianapolis, Ind.). The chimeric protein is assessed for the ability to transactivate a Gal4-responsive luciferase reporter plasmid in a concentration-responsive manner to compounds (0.01-10 μM). Luciferase activity at each dose concentration is measured in triplicate using standard substrate reagents (BD Biosciences; San Diego, Calif.). Data is expressed as relative light units and are shown below in Table 1.

SMILES	EC50
CC(C)c1cc(-c2ccc(-c3cccc(S(C)(=O)=O)c3)cc2)n(CC(=O)O)n1 [Example 16, 2-(3-Isopropyl-5-(3′-(methylsulfonyl)-[1,1′-biphenyl]-4-yl)-1H-pyrazol-1-yl)acetic acid]	> 10 µM
CC(C)Cc1nc(C(=O)O)cn1-c1ccc(-c2cccc(S(C)(=O)=O)c2)cc1 [Example 10, 2-Isobutyl-1-(3′-(methylsulfonyl)-[1,1′-biphenyl]-4-yl)-1H-imidazole-4-carboxylic acid]	> 10 µM
CS(=O)(=O)c1cccc(-c2ccc(-n3cc(C(F)(F)F)nc3CC(=O)O)cc2)c1 [Example 2, 2-(1-(3′-(Methylsulfonyl)-[1,1′-biphenyl]-4-yl)-4-(trifluoromethyl)-1H-imidazol-2-yl)acetic acid]	> 10 µM
CCOC(=O)Cn1nc(C(C)C)cc1-c1ccc(-c2cccc(S(C)(=O)=O)c2)cc1 [Example 15, Ethyl 2-(3-isopropyl-5-(3′-(methylsulfonyl)-[1,1′-biphenyl]-4-yl)-1H-pyrazol-1-yl)acetate]	1 to 10 µM
CC(C)Cn1nc(C(=O)O)cc1-c1ccc(-c2ccc(CO)c(S(C)(=O)=O)c2)cc1 [Example 8, 5-(4′-(Hydroxymethyl)-3′-(methylsulfonyl)-[1,1′-biphenyl]-4-yl)-1-isobutyl-1H-pyrazole-3-carboxylic acid]	> 10 µM
CC(C)Cc1nc(C(=O)O)cn1-c1ccc(-c2ccc(CO)c(S(C)(=O)=O)c2)cc1 [Example 12, 1-(4′-(Hydroxymethyl)-3′-(methylsulfonyl)-[1,1′-biphenyl]-4-yl)-2-isobutyl-1H-imidazole-4-carboxylic acid]	> 10 µM
CCOC(=O)c1cn(-c2ccc(-c3cccc(S(C)(=O)=O)c3)cc2)c(CC(C)C)n1 [Example 9, Ethyl 2-isobutyl-1-(3′-(methylsulfonyl)-[1,1′-biphenyl]-4-yl)-1H-imidazole-4-carboxylate]	1 to 10 µM
CS(=O)(=O)c1cc(-c2ccc(-n3cc(C(F)(F)F)nc3CC(=O)O)cc2)ccc1CO [Example 4, 2-(1-(4′-(Hydroxymethyl)-3′-(methylsulfonyl)[1,1′-biphenyl]-4-yl)-4-(trifluoromethyl)-1H-imidazol-2-yl)acetic acid]	> 10 µM
CC(C)Cn1nc(C(=O)O)cc1-c1ccc(-c2cccc(S(C)(=O)=O)c2)cc1 [Example 6, 1-Isobutyl-5-(3′-(methylsulfonyl)-[1,1′-biphenyl]-4-yl)-1H-pyrazole-3-carboxylic acid]	> 10 µM
C=C(C)c1cc(-c2ccc(-c3cccc(S(C)(=O)=O)c3)cc2)n(CC(=O)O)n1 [Example 14, 2-(5-(3′-(Methylsulfonyl)-[1,1′-biphenyl]-4-yl)-3-(prop-1-en-2-yl)-1H-pyrazol-1-yl)acetic acid]	> 10 µM
CCOC(=O)c1cn(-c2ccc(-c3ccc(CO)c(S(C)(=O)=O)c3)cc2)c(CC(C)C)n1 [Example 11, Ethyl 1-(4′-(hydroxymethyl)-3′-(methylsulfonyl)-[1,1′-biphenyl]-4-yl)-2-isobutyl-1H-imidazole-4-carboxylate]	1 to 10 µM

Results, then the compound that gave them:

EC50	SMILES
1 to 10 µM	CCOC(=O)Cc1nc(C(F)(F)F)cn1-c1ccc(-c2cccc(S(C)(=O)=O)c2)cc1 [Example 1, Ethyl 2-(1-(3′-(methylsulfonyl)-[1,1′-biphenyl]-4-yl)-4-(trifluoromethyl)-1H-imidazol-2-yl)acetate]
< 1 µM	C=C(C)c1cc(-c2ccc(-c3cccc(S(C)(=O)=O)c3)cc2)n(CC(=O)OCC)n1 [Example 13, Ethyl 2-(5-(3′-(methylsulfonyl)-[1,1′-biphenyl]-4-yl)-3-(prop-1-en-2-yl)-1H-pyrazol-1-yl)acetate]
1 to 10 µM	CCOC(=O)c1cc(-c2ccc(-c3ccc(CO)c(S(C)(=O)=O)c3)cc2)n(CC(C)C)n1 [Example 7, Ethyl 5-(4′-(hydroxymethyl)-3′-(methylsulfonyl)[1,1′-biphenyl]-4-yl)-1-isobutyl-1H-pyrazole-3-carboxylate]
< 1 µM	CCOC(=O)c1cc(-c2ccc(-c3cccc(S(C)(=O)=O)c3)cc2)n(CC(C)C)n1 [Example 5, Ethyl 1-isobutyl-5-(3′-(methylsulfonyl)-[1,1′-biphenyl]-4-yl)-1H-pyrazole-3-carboxylate]
< 1 µM	CCOC(=O)Cc1nc(C(F)(F)F)cn1-c1ccc(-c2ccc(CO)c(S(C)(=O)=O)c2)cc1 [Example 3, Ethyl 2-(1-(4′-(hydroxymethyl)-3′-(methylsulfonyl)-[1,1′-biphenyl]-4-yl)-4-(trifluoromethyl)-1H-imidazol-2-yl)acetate]
